Measured values reported in patent publication US6841167B1, “β-carboline pharmaceutical compositions” (Lilly Icos LLC., priority 1999, dated 2005).

Legend:
[1] = bioavailability of Compound A; details: in vivo
[2] = physical stability evaluation of solutions (microscope, drug crystals); assay type: physicochemical; details: PEG 400, room temperature and 4° C.
Experimental: The solutions then were allowed to cool to room temperature (RT). A portion of each solution was mixed with water (8 mg water per 100 mg solution) to mimic the water migration and retention processes occurring in a soft capsule. The solutions (with and without water) were stored at RT (room temperature) and at 4° C. for physical stability evaluation.

- bioavailability [1]: low and inconsistent bioavailability
- drug concentration at which PEG 400 solution formulation is physically stable with respect to drug crystallization [2]: ≤ 2.8%
SMILES: CN1CC(=O)N2[C@H](c3ccc4c(c3)OCO4)c3[nH]c4ccccc4c3C[C@@H]2C1=O (relative stereo) [Compound A, (6R-trans)-6-(1,3-benzodioxol-5-yl)-2,3,6,7,12,12a-hexahydro-2-methylpyrazino-[1′, 2′:1, ]pyrido[3,4-b]indole-1,4-dione]
